Measured values: patent US7348315B2, “Methods of treating heart failure with modified ATP, ADP and AMP compounds” (priority 1995, dated 2008)

Target: P2 purinergic receptor
Assay: Intact myocyte binding with the P2-selective radioligand [35S]ADPβS
Settings: intact myocytes; radioligand range 0.5-200 nM; read-out: Kd of low-affinity [35S]ADPβS binding site
Protocol: Cardiac ventricular myocytes were prepared and incubated with progressively increasing concentrations of [^35S] ADPβS. The binding reaction is performed by the addition of a Dulbecco's Modified Eagle's Medium (which contains 1-glutamine and glucose but lacks phenol red, adenosine nucleotides, and sodium bicarbonate, buffered by HEPES, pH=7.4) containing [^35S]ADPβS (0.5 to 200 nM, for saturation isotherm study). Nonradioactive ADPβS is used to define the level of nonspecific binding. Additional purinergic agonists or antagonists are added depending on the experimental conditions. Following a 30-minute incubation at 37° C., cells are washed three times with 3 ml of ice-cold wash buffer (containing 120 mM NaCl, 5.4 mM KCl, 0.8 mM MgSO4, 1.8 mM CaCl2, 50 mM HEPES, and 1.0 mM NaH2PO4 adjusted to pH=7.4). One ml of 0.5 M NaOH is added to the monolayer culture to solubilize the cell protein and 0.5 ml of Tris buffer, pH=7.4 is added to neutralize NaOH prior to scintillation counting for ^35S.
To determine the Bmax and Kd of the specific [^35S]ADPβS binding, a computer-aided nonlinear regression analysis (LIGAND PROGRAM) is used. See, […] 1980, 107, 220-239. Both a one-site and a two-site model is applied to fit the data points.

For `Nc1ncnc2c1ncn2[C@@H]1O[C@H](COP(=O)(O)OP(O)(O)=S)[C@@H](O)[C@H]1O` [[^35S] ADPβS, [^35S] 5′-O-2-thiodiphosphate], the Kd was 0.04 µM.
